Laboratory results taken from ChEMBL document CHEMBL3132769, “Fragment growing to retain or alter the selectivity of anchored kinase hinge-binding fragments” (Medchemcomm, 2014).

Key:
[1] = molecular target: T1, Serine/threonine-protein kinase D3 (Homo sapiens) (UniProt O94806); test: Inhibition of human full length PKD3 expressed in baculovirus assessed as substrate phosphorylation using fluorescence-labelled peptides as substrate at 0.2 uM after 90 mins by microfluidic peptide phosphorylation assay
T1 sequence (whole entry): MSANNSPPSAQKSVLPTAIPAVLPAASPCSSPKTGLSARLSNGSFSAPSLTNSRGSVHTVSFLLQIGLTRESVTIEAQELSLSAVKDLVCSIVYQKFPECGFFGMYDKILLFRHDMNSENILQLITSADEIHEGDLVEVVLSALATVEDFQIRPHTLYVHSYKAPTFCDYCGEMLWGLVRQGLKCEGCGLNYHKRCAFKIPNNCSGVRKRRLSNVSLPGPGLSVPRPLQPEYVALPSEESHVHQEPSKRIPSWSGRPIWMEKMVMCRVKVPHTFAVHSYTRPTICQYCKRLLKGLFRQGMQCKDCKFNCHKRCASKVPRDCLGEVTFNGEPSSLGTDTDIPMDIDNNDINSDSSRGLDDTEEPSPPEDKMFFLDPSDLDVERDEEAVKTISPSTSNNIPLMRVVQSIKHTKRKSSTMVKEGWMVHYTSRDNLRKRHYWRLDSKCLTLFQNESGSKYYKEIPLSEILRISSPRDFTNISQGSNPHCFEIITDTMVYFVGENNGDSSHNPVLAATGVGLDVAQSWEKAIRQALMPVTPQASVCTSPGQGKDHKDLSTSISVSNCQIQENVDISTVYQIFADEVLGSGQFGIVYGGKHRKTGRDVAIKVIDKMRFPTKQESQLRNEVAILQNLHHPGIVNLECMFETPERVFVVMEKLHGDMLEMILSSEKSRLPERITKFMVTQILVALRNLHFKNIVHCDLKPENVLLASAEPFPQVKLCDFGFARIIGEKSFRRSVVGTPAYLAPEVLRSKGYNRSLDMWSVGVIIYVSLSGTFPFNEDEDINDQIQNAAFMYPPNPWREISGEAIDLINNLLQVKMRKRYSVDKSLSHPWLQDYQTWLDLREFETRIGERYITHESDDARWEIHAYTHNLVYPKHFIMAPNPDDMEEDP

[2] = molecular target: T2, Testis-specific serine/threonine-protein kinase 1 (Homo sapiens) (UniProt Q9BXA7); test: Inhibition of human full length TSSK1 expressed in baculovirus assessed as substrate phosphorylation using fluorescence-labelled peptides as substrate at 420 uM after 90 mins by microfluidic peptide phosphorylation assay
T2 sequence (whole entry): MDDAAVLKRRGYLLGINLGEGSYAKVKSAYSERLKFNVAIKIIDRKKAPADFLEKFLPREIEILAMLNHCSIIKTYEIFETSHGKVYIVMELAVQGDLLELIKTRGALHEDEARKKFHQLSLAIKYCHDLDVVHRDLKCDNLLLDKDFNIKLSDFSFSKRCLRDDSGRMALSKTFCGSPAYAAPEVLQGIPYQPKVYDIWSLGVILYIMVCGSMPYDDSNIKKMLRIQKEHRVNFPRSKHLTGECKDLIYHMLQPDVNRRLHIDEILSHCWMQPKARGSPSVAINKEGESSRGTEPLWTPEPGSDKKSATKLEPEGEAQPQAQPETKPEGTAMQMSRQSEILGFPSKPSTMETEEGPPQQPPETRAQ

[3] = molecular target: Receptor-type tyrosine-protein kinase FLT3 (Homo sapiens) (UniProt P36888); test: Inhibition of human FLT3 catalytic domain expressed in baculovirus assessed as substrate phosphorylation using fluorescence-labelled peptides as substrate at 420 uM after 90 mins by microfluidic peptide phosphorylation assay
[4] = molecular target: Protein kinase C eta type (Homo sapiens) (UniProt P24723); test: Inhibition of human truncated PKC eta expressed in baculovirus assessed as substrate phosphorylation using fluorescence-labelled peptides as substrate at 95 uM after 90 mins by microfluidic peptide phosphorylation assay
[5] = molecular target: Protein kinase C beta type (Homo sapiens) (UniProt P05771); test: Inhibition of human truncated PKC beta1 expressed in baculovirus assessed as substrate phosphorylation using fluorescence-labelled peptides as substrate at 95 uM after 90 mins by microfluidic peptide phosphorylation assay
[6] = molecular target: Tyrosine-protein kinase ABL2 (Homo sapiens) (UniProt P42684); test: Inhibition of human truncated Arg expressed in baculovirus assessed as substrate phosphorylation using fluorescence-labelled peptides as substrate at 0.06 uM after 90 mins by microfluidic peptide phosphorylation assay
[7] = molecular target: T3, Mitogen-activated protein kinase 12 (Homo sapiens) (UniProt P53778); test: Inhibition of human full length p38 gamma expressed in Escherichia coli cell assessed as substrate phosphorylation using fluorescence-labelled peptides as substrate at 8 uM after 90 mins by microfluidic peptide phosphorylation assay
T3 sequence (whole entry): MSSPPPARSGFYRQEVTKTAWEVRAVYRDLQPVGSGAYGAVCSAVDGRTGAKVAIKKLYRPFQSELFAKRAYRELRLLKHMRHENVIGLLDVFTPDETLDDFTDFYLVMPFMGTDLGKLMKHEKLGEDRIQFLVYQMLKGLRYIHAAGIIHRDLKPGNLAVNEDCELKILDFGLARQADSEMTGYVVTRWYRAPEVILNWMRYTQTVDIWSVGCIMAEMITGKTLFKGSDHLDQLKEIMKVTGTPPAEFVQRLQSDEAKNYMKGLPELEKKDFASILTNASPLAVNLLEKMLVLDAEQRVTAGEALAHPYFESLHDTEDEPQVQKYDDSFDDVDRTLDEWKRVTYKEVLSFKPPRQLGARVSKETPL

[8] = molecular target: T4, Serine/threonine-protein kinase Chk1 (Homo sapiens) (UniProt O14757); test: Inhibition of human full length CHK1 expressed in baculovirus assessed as substrate phosphorylation using fluorescence-labelled peptides as substrate at 70 uM after 90 mins by microfluidic peptide phosphorylation assay
T4 sequence (whole entry): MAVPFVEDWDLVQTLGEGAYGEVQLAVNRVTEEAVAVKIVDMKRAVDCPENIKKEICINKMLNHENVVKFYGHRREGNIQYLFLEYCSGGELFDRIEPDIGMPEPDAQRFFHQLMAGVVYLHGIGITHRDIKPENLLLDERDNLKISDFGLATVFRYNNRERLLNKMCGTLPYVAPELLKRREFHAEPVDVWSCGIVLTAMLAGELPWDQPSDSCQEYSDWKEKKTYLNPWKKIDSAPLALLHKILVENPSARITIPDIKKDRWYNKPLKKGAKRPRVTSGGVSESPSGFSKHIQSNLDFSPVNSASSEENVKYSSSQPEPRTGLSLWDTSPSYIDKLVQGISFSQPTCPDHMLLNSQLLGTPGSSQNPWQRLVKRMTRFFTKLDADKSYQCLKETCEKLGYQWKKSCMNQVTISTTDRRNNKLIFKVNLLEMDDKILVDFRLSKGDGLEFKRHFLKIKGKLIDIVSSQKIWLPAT

[9] = molecular target: Tyrosine-protein kinase BTK (Homo sapiens) (UniProt Q06187); test: Inhibition of human full length BTK expressed in baculovirus assessed as substrate phosphorylation using fluorescence-labelled peptides as substrate at 70 uM after 90 mins by microfluidic peptide phosphorylation assay
Chain of Tyrosine-protein kinase BTK (Homo sapiens) (Q06187 whole entry): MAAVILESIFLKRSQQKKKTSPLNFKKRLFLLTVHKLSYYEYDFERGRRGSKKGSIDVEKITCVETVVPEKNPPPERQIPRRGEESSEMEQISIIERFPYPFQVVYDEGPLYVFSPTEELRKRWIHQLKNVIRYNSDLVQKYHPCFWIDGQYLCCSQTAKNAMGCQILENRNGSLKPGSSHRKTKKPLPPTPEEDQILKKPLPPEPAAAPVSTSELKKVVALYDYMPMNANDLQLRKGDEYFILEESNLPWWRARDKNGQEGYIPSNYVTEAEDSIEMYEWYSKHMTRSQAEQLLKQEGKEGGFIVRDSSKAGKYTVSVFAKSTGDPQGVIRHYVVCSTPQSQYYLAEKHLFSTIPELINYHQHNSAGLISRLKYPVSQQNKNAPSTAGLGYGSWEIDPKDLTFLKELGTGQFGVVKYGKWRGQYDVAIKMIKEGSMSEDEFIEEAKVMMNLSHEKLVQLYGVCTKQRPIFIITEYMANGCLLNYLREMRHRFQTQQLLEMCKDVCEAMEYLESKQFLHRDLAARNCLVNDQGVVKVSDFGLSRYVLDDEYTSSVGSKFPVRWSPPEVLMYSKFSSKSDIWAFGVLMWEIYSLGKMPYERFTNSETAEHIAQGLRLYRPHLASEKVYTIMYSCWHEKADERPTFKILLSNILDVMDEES

Chain of Protein kinase C eta type (Homo sapiens) (P24723 whole entry, the tested form may be a part): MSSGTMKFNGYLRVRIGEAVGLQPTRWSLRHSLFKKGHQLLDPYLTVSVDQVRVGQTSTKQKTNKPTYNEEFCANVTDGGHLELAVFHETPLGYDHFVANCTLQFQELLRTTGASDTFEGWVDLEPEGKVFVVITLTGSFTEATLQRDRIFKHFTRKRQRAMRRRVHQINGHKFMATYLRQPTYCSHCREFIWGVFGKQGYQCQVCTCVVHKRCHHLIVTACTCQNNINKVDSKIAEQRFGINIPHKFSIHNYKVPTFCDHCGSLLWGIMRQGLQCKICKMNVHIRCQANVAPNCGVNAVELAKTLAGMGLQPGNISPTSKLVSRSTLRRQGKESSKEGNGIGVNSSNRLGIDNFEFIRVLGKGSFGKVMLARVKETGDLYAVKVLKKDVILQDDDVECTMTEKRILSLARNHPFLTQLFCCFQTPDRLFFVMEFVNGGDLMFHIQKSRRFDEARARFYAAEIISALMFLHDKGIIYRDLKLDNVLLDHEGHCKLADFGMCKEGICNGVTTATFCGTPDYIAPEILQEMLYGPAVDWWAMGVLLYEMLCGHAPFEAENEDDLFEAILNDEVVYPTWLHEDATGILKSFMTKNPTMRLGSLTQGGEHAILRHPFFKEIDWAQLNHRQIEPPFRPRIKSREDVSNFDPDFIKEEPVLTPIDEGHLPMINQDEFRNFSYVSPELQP
Chain of Tyrosine-protein kinase ABL2 (Homo sapiens) (P42684 whole entry, the tested form may be a part): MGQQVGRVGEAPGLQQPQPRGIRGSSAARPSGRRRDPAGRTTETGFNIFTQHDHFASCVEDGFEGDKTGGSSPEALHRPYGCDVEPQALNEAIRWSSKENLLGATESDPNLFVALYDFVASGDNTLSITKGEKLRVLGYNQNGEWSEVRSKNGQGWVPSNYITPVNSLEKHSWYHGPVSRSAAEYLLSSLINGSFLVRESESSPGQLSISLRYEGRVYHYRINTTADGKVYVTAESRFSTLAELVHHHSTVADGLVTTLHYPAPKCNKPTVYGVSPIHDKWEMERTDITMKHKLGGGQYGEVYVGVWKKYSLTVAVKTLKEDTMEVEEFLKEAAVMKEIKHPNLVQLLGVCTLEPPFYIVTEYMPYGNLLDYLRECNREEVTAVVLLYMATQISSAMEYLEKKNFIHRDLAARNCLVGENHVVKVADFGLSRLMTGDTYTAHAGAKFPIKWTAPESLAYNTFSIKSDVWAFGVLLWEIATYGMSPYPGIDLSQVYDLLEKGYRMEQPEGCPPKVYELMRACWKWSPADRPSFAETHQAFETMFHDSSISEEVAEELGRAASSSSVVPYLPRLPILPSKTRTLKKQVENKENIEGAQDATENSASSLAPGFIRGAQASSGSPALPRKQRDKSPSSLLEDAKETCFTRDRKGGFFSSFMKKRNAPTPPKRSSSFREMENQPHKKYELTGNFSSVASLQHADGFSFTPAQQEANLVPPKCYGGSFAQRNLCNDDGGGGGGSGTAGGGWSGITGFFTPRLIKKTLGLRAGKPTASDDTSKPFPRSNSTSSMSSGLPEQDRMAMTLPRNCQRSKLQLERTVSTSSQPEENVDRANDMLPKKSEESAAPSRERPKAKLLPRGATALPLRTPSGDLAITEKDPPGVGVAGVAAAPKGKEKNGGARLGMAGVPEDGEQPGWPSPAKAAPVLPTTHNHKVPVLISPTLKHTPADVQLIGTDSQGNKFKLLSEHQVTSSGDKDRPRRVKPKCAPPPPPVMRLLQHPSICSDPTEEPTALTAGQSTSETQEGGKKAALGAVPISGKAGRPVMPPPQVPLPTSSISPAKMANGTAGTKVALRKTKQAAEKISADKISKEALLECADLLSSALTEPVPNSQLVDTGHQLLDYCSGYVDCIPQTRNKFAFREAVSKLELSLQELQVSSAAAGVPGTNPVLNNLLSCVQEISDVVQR
Chain of Protein kinase C beta type (Homo sapiens) (P05771 2-671 limits assumed): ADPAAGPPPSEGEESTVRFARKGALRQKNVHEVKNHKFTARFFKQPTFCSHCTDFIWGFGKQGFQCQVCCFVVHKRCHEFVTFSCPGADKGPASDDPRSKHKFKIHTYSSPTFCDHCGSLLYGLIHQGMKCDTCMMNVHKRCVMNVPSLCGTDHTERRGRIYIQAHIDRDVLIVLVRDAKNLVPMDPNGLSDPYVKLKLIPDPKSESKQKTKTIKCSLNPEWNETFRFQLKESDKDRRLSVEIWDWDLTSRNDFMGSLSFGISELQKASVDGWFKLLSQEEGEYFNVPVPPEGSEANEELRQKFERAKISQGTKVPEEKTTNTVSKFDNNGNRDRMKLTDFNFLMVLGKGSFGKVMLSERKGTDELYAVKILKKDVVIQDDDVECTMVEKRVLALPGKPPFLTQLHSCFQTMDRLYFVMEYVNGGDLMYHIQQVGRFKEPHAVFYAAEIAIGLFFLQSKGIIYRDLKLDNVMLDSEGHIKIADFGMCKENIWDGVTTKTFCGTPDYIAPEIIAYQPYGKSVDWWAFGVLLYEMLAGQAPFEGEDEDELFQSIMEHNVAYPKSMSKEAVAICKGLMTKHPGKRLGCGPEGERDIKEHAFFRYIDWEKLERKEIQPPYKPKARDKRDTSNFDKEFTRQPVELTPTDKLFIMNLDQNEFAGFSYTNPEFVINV
Chain of Receptor-type tyrosine-protein kinase FLT3 (Homo sapiens) (P36888 whole entry, the tested form may be a part): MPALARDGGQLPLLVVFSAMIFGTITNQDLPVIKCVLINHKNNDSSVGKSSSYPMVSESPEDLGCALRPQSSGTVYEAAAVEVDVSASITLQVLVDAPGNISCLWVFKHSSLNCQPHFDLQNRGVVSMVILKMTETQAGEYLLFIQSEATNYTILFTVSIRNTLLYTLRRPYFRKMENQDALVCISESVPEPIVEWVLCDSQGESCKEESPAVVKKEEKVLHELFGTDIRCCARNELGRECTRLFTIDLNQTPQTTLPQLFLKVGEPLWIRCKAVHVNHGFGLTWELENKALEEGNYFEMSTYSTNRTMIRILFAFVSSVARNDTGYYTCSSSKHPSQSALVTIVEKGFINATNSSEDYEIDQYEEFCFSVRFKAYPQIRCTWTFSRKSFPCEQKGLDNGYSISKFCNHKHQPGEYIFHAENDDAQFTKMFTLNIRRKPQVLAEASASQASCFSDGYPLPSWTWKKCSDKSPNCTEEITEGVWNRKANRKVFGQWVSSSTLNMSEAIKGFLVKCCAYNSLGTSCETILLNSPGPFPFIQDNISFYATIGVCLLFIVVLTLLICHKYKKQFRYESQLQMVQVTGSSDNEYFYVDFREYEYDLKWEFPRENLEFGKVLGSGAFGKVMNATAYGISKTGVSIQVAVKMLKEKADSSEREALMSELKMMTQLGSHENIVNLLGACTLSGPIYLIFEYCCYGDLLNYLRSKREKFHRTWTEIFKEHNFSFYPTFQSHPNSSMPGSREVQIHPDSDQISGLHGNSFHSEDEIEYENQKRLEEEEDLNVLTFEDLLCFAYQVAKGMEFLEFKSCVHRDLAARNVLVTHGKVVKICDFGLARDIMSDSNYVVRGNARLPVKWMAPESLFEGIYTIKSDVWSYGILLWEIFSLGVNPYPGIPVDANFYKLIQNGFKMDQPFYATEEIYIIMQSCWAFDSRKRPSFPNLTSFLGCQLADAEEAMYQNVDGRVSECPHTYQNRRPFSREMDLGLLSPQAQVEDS

Clc1ccc(C2(c3ccc(-c4ncnc5[nH]cnc45)cc3)CCNCC2)cc1 was tested, and the inhibition [1] was 12.5%.
With c1nc(N2CCOCC2)c2nc[nH]c2n1 the inhibition [2] was 71% and the inhibition [3] was 85.5%.
Compound NCCc1ccc(-c2ncnc3[nH]cnc23)cc1 has an inhibition [4] of 86.5% and an inhibition [5] of 77%.
For NC1(Cc2ccc(Cl)cc2)CCN(c2ncnc3[nH]ccc23)CC1, the inhibition [6] was 5%.
NCC1CCN(c2ncnc3[nH]ccc23)CC1 gave an inhibition [7] of 5%.
CNCc1ccc(-c2ncnc3[nH]cnc23)cc1 gave an inhibition [8] of 72% and an inhibition [9] of 0%.
